# Measured values published in ChEMBL document CHEMBL1136470, “Rational design, synthesis and structure-activity relationships of a cyclic succinate series of TNF-alpha converting enzyme inhibitors. Part 1: lead identification” (Bioorg Med Chem Lett, 2003).
# Tests used:
# [1] = target: T1, Interstitial collagenase (Homo sapiens, UniProt P03956); assay: Inhibition of matrix metalloprotease-1 (MMP-1)
# T1 sequence (P03956 whole entry): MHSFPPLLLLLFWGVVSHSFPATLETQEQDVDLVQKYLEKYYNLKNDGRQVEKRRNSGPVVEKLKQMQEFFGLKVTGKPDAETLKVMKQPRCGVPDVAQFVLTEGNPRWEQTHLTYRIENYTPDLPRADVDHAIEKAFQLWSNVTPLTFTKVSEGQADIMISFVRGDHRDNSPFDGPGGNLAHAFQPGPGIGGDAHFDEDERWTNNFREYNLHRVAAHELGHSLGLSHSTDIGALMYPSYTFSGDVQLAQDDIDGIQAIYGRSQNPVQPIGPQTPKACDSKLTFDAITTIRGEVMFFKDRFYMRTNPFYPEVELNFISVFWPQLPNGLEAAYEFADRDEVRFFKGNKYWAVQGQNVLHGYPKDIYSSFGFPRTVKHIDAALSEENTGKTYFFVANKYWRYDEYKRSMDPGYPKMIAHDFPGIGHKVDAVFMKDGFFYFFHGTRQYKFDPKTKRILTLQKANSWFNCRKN
# [2] = target: Disintegrin and metalloproteinase domain-containing protein 17 (Sus scrofa, UniProt O77636); assay: Inhibition of porcine TACE
# Sequence of Disintegrin and metalloproteinase domain-containing protein 17 (O77636 whole entry, the tested form may be a part): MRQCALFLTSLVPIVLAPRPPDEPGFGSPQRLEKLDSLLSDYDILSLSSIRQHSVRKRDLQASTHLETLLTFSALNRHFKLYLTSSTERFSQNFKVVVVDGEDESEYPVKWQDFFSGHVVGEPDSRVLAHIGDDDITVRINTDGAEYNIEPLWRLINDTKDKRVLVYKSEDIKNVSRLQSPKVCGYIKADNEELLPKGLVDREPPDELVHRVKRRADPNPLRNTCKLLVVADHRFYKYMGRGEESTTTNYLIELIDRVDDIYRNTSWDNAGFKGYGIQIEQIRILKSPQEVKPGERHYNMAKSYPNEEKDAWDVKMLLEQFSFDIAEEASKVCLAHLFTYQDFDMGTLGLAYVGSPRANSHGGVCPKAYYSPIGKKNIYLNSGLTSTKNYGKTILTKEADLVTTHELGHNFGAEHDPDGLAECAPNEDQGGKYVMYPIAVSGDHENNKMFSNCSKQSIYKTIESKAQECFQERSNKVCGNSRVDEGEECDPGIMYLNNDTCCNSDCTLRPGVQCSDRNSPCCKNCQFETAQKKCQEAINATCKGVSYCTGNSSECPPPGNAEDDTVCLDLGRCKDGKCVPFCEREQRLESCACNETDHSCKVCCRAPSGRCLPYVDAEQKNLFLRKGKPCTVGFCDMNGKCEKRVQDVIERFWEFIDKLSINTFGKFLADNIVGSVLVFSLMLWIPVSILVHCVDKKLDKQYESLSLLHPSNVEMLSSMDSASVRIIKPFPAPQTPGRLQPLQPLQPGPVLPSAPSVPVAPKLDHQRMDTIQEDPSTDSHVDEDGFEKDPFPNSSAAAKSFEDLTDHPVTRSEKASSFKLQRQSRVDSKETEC
# [3] = target: Matrix metalloproteinase-9 (Homo sapiens, UniProt P14780); assay: Inhibition of matrix metalloprotease-9 (MMP-9)
# Sequence of Matrix metalloproteinase-9 (P14780 whole entry): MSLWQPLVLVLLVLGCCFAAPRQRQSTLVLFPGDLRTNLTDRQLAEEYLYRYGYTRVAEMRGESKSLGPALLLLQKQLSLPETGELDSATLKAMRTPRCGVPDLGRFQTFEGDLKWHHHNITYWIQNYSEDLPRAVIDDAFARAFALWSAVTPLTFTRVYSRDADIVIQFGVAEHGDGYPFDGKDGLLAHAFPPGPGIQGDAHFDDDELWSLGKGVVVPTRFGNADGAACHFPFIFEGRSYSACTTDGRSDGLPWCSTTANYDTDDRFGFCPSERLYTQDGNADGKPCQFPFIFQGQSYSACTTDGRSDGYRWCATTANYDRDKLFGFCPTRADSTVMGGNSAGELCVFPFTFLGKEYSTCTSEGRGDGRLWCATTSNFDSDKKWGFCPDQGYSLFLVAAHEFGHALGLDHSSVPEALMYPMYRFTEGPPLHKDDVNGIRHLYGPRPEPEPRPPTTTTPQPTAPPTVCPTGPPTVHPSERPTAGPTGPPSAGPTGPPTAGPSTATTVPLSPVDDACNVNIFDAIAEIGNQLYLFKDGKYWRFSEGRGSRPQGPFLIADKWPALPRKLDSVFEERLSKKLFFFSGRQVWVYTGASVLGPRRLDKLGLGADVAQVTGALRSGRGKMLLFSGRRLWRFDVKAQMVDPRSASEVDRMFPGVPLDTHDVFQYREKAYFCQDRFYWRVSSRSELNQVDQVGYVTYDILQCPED
# [4] = target: 72 kDa type IV collagenase (Homo sapiens, UniProt P08253); assay: Inhibition of matrix metalloprotease-2 (MMP-2)
# Sequence of 72 kDa type IV collagenase (P08253 whole entry): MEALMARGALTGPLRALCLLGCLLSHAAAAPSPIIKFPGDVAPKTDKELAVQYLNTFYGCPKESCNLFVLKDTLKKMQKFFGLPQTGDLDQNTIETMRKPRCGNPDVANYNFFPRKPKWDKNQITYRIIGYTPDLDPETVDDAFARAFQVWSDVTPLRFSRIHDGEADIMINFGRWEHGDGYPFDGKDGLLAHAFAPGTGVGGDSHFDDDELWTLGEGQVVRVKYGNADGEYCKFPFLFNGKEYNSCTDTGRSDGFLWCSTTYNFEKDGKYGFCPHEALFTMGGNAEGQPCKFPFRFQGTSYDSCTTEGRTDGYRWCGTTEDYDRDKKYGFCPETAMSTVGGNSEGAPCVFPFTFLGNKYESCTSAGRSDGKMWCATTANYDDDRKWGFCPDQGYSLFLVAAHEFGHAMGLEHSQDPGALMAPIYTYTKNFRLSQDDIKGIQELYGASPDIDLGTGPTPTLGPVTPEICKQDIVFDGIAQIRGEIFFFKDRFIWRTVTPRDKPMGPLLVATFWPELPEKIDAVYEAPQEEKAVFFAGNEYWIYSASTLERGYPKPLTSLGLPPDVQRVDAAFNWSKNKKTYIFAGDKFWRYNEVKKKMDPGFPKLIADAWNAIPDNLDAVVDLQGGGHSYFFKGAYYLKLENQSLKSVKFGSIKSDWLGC
# [5] = Inhibition of aggrecanase
# [6] = organism: Homo sapiens; assay: Compound tested for the in vitro inhibition of TNF-alpha production was determined by using LPS-stimulated human whole blood assay (WBA); type: functional
SMILES,Ki [1],IC50 [2],Ki [3],Ki [4],Ki [5],IC50 [6]
O=C(NO)[C@H]1CCCC[C@@H]1C(=O)Nc1ccc(C#Cc2ccc3ncccc3c2)cc1,> 4950 nM,7240 nM,> 2130 nM,> 3330 nM,> 500 nM,> 50000 nM
O=C(NO)[C@H]1CCCC[C@@H]1C(=O)Nc1ccc(OCc2ccccc2)cc1,> 4950 nM,89 nM,> 2130 nM,> 3330 nM,> 500 nM,> 50000 nM
O=C(NO)[C@H]1CCC[C@@H]1C(=O)Nc1ccc(OCc2ccncc2)cc1,> 4950 nM,620 nM,> 2130 nM,> 3330 nM,> 500 nM,> 50000 nM
O=C(NO)[C@H]1CCC[C@@H]1C(=O)Nc1ccc(OCc2cc(Cl)cc(Cl)c2)cc1,> 4950 nM,53 nM,> 2130 nM,> 3330 nM,> 500 nM,> 50000 nM
O=C(NO)[C@H]1CCC[C@@H]1C(=O)Nc1ccc(Cc2ccncc2)cc1,> 4950 nM,210 nM,> 2130 nM,675 nM,> 500 nM,> 50000 nM
O=C(NO)[C@H]1CCC[C@@H]1C(=O)Nc1ccc(COc2ccnc3ccccc23)cc1,> 4950 nM,39 nM,> 2130 nM,> 3330 nM,> 500 nM,> 50000 nM
O=C(NO)[C@H]1CCCC[C@@H]1C(=O)Nc1ccc(COc2cccc3ncccc23)cc1,> 4950 nM,45 nM,1360 nM,585 nM,> 500 nM,> 50000 nM
O=C(NO)[C@H]1CCCC[C@@H]1C(=O)Nc1ccc(COc2ccnc3ccccc23)cc1,> 4950 nM,8 nM,> 2130 nM,> 3330 nM,> 500 nM,> 50000 nM
O=C1NCCCC[C@@H](C(=O)NCC(=O)N2CCOCC2)NC(=O)[C@H](Cc2ccc(-c3ccccc3C(F)(F)F)cc2)[C@@H](C(=O)NO)CCCO1,> 2000 nM,,> 2000 nM,> 2000 nM,,> 70 nM
O=C(NO)[C@H]1CCCC[C@@H]1C(=O)Nc1ccc(COc2ccc3ncccc3c2)cc1,> 4950 nM,56 nM,876 nM,1080 nM,> 500 nM,> 50000 nM
O=C(NO)[C@H]1CCC[C@@H]1C(=O)Nc1ccc(OCc2ccccc2)cc1,> 4950 nM,110 nM,> 2130 nM,> 3330 nM,> 500 nM,> 50000 nM
